Data published in patent US20240217966A1, “PHARMACEUTICAL COMPOSITION CONTAINING GLP-1 RECEPTOR AGONIST HAVING FUSED RING” (Shionogi & Co., Ltd., priority 2021, published 2024).
pEC50: −log10 of the molar value. “And” between values parts separate entries of the source, which are not always exact repeats. Identical values can stand only once. Like-named read-outs stand apart in the source and are kept apart here.

Molecular target: T1, Human GLP-1 receptor (Homo sapiens, UniProt P43220)
T1 construct: expressed in transfected cells
T1 sequence (P43220 24-463): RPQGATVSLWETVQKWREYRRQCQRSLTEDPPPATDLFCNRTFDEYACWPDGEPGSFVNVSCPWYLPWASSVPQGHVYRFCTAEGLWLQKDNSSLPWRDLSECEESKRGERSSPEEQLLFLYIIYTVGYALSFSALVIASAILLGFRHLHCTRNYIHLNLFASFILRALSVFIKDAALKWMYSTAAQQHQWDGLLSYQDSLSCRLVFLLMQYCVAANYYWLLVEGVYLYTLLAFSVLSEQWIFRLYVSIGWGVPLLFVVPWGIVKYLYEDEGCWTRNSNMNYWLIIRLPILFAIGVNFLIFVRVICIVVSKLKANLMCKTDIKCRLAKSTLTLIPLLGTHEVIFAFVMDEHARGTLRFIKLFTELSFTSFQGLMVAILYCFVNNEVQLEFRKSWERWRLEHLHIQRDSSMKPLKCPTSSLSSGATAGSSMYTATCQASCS
Test: Measurement of GLP-1 receptor agonist activity (cAMP assay)
Format: cell-based
Conditions: cAMP increase in GLP-1 R/CHO-K1 cells, 2 nM human GLP-1 (7-36) = 100%, DMSO only = 0%
How it was run: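 hGLP-1R/CHO-K1 cells in HBSS with 0.1% BSA, 20 mM HEPES, 0.1 mM IBMX and 0.2 mM RO20-1724 exposed to compound plus forskolin (400 μM stock) for 1 h at 37 °C. Intracellular cAMP read by HTRF (cAMP-d2/anti-cAMP cryptate, 1 h at room temperature).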

[1] = CHO-K1, maximum effect, read-out: Emax

Row | SMILES | Emax [1] [%] | pEC50 | Emax (maximum effect) [%]
1 | COc1ccc(COc2nc3c(cc2C(F)(F)F)CCN(Cc2nc4ccc(C(=O)O)c(F)c4n2C[C@@H]2CCO2)[C@H]3C)cc1 [Compound I-354] | 122 | 9.86 | 
2 | C[C@H]1c2nc(OCc3ccc(Cl)cn3)c(C(F)(F)F)cc2CCN1Cc1nc2ccc(C(=O)O)c(F)c2n1C[C@@H]1CCO1 [Compound I-355] | 119 | 9.99 | 
3 | C[C@H]1c2nc(OCc3ccc(C4CC4)cc3)c(C(F)(F)F)cc2CCN1Cc1nc2ccc(C(=O)O)c(F)c2n1C[C@@H]1CCO1 [Compound I-356] | 118 | 9.60 | 
4 | COc1cc(Cl)ccc1COc1nc2c(cc1C(F)(F)F)CCN(Cc1nc3ccc(C(=O)O)c(F)c3n1C[C@@H]1CCO1)[C@H]2C [Compound I-357] | 123 | 10.37 | 
5 | C[C@H]1c2nc(OCc3ccc(F)cc3F)c(C(F)(F)F)cc2CCN1Cc1nc2ccc(C(=O)O)c(F)c2n1C[C@@H]1CCO1 [Compound I-359] | 123 | 10.32 | 
6 | C[C@H]1c2nc(OCc3ccc(OC(F)F)cc3F)c(C(F)(F)F)cc2CCN1Cc1nc2ccc(C(=O)O)c(F)c2n1C[C@@H]1CCO1 [Compound I-360] | 115 | 9.98 | 
7 | C[C@H]1c2nc(OCc3c(F)cc(F)cc3F)c(C(F)(F)F)cc2CCN1Cc1nc2ccc(C(=O)O)c(F)c2n1C[C@@H]1CCO1 [Compound I-361] | 108 | 10.11 | 
8 | C[C@H]1c2nc(OCc3c(F)cc(Cl)cc3F)c(C(F)(F)F)cc2CCN1Cc1nc2ccc(C(=O)O)c(F)c2n1C[C@@H]1CCO1 [Compound I-362] | 133 | 10.39 | 
9 | Cc1ccc(COc2nc3c(cc2C(F)(F)F)CCN(Cc2nc4c(F)cc(C(=O)O)cc4n2C[C@@H]2CCO2)[C@H]3C)cc1 [Compound I-363] | 115 | 10.04 | 
10 | COc1ccc(COc2nc3c(cc2C(F)(F)F)CCN(Cc2nc4c(F)cc(C(=O)O)cc4n2C[C@@H]2CCO2)[C@H]3C)cc1 [Compound I-364] | 118 | 9.83 | 
11 | C[C@H]1c2nc(OCc3ccc(Cl)cn3)c(C(F)(F)F)cc2CCN1Cc1nc2c(F)cc(C(=O)O)cc2n1C[C@@H]1CCO1 [Compound I-365] | 115 | 10.13 | 
12 | C[C@H]1c2nc(OCc3ccc(C4CC4)cc3)c(C(F)(F)F)cc2CCN1Cc1nc2c(F)cc(C(=O)O)cc2n1C[C@@H]1CCO1 [Compound I-366] | 114 | 9.38 | 
13 | COc1cc(Cl)ccc1COc1nc2c(cc1C(F)(F)F)CCN(Cc1nc3c(F)cc(C(=O)O)cc3n1C[C@@H]1CCO1)[C@H]2C [Compound I-367] | 107 | 10.67 | 

More lines, now with the values ahead:

Row | Emax [1] [%] | pEC50 | Emax (maximum effect) [%] | SMILES
14 | 120 | 9.87 and 9.70 | 102 | C[C@H]1c2nc(OCc3ccccc3Cl)c(C(F)(F)F)cc2CCN1Cc1nc2c(F)cc(C(=O)O)cc2n1C[C@@H]1CCO1 [Compound I-368]
15 | 112 | 10.28 |  | C[C@H]1c2nc(OCc3ccc(F)cc3F)c(C(F)(F)F)cc2CCN1Cc1nc2c(F)cc(C(=O)O)cc2n1C[C@@H]1CCO1 [Compound I-369]
16 | 109 | 9.84 |  | C[C@H]1c2nc(OCc3ccc(OC(F)F)cc3F)c(C(F)(F)F)cc2CCN1Cc1nc2c(F)cc(C(=O)O)cc2n1C[C@@H]1CCO1 [Compound I-370]
17 | 122 | 10.31 |  | C[C@H]1c2nc(OCc3c(F)cc(F)cc3F)c(C(F)(F)F)cc2CCN1Cc1nc2c(F)cc(C(=O)O)cc2n1C[C@@H]1CCO1 [Compound I-371]
18 | 117 | 10.64 |  | C[C@H]1c2nc(OCc3c(F)cc(Cl)cc3F)c(C(F)(F)F)cc2CCN1Cc1nc2c(F)cc(C(=O)O)cc2n1C[C@@H]1CCO1 [Compound I-372]
19 | 122 | 10.71 |  | COc1cc(C(=O)O)cc2c1nc(CN1CCc3cc(C(F)(F)F)c(OCc4ccc(C)cc4)nc3[C@@H]1C)n2C[C@@H]1CCO1 [Compound I-373]
20 | 100 | 10.68 |  | COc1cc(C(=O)O)cc2c1nc(CN1CCc3cc(C(F)(F)F)c(OCc4ccc(Cl)cc4)nc3[C@@H]1C)n2C[C@@H]1CCO1 [Compound I-374]
